The source made the active and inactive calls. No cut-off for these calls is given here.
How the values were obtained:
[1] = Oral bioavailability in Beagle dog at 10 mg/kg, administered as single dose by LC-MS/MS analysis; type: ADME, organism-based, Canis lupus familiaris; details: in vivo
[2] = Dose normalized AUC (0 to 24 hrs) in Beagle dog at 10 mg/kg, po administered as single dose by LC-MS/MS analysis; type: ADME, organism-based, Canis lupus familiaris; details: in vivo
[3] = Tmax in Balb/c mouse at 10 mg/kg, po administered as single dose by LC-MS/MS analysis; type: ADME, organism-based; details: in vivo
[4] = Dose normalized AUC (0 to 24 hrs) in Balb/c mouse at 10 mg/kg, po administered as single dose by LC-MS/MS analysis; type: ADME, organism-based; details: in vivo
[5] = Drug uptake in C57BL/6N mouse lung at 30 mg/kg, po qd administered via gavage measured 24 hrs post dose; type: ADME, organism-based; details: in vivo
[6] = Dose normalized Cmax in Sprague-Dawley rat at 6 mg/kg, po administered as single dose by LC-MS/MS analysis; type: ADME, organism-based; details: in vivo
[7] = target: Solute carrier family 22 member 2 (Homo sapiens, UniProt O15244); experiment: Inhibition of OCT2 (unknown origin) at 1 to 10 uM
Mus musculus = species: Mus musculus; details: C57BL/6N, dose 30.0 mg/kg
[8] = Drug uptake in C57BL/6N mouse plasma at 30 mg/kg, po qd administered via gavage measured 24 hrs post dose; type: ADME, organism-based; details: in vivo
Cytochrome P450 1A2 = Cytochrome P450 1A2 (Homo sapiens, UniProt P05177); experiment: Inhibition of CYP1A2 (unknown origin); type: ADME
Cytochrome P450 1A2, sequence (P05177 whole entry): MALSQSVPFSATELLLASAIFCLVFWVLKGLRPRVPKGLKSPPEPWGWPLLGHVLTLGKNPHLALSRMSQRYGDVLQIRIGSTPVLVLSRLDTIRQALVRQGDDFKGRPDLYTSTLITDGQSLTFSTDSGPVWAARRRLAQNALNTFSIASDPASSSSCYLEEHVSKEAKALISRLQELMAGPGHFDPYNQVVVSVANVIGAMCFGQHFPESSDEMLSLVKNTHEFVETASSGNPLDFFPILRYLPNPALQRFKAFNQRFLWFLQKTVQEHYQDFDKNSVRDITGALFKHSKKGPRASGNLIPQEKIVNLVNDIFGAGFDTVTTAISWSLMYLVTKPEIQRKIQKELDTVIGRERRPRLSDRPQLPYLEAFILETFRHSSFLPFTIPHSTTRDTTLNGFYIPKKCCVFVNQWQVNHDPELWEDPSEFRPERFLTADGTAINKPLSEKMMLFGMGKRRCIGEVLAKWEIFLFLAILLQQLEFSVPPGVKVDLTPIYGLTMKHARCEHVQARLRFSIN

[9] = AUC (0 to 24 hrs) in Sprague-Dawley rat at 2 mg/kg, iv administered as single bolus dose by LC-MS/MS analysis; type: ADME, organism-based; set-up: time < 24 hr, route intravenous, dose 2 mg/kg; details: in vivo
[10] = Cmax in Beagle dog at 10 mg/kg, po administered as single dose by LC-MS/MS analysis; type: ADME, organism-based, Canis lupus familiaris; set-up: route oral, dose 10 mg/kg; details: in vivo
[11] = Clearance (0 to 24 hrs) in Sprague-Dawley rat at 2 mg/kg, iv administered as single bolus dose by LC-MS/MS analysis; type: ADME, organism-based; details: in vivo
[12] = Dose normalized AUC (0 to 24 hrs) in Sprague-Dawley rat at 2 mg/kg, iv administered as single bolus dose by LC-MS/MS analysis; type: ADME, organism-based; details: in vivo
[13] = Dose normalized AUC (0 to 24 hrs) in Balb/c mouse at 3 mg/kg, iv administered as single bolus dose by LC-MS/MS analysis; type: ADME, organism-based; details: in vivo
[14] = target: Ileal sodium/bile acid cotransporter (Homo sapiens, UniProt Q12908); experiment: Inhibition of ASBT (unknown origin) at 1 to 10 uM; details: dose 1-10 µM
[15] = Volume of distribution at steady state in Sprague-Dawley rat at 2 mg/kg, iv administered as single bolus dose measured upto 24 hrs by LC-MS/MS analysis; type: ADME, organism-based; details: in vivo, read-out: Vdss
[16] = Elimination half-life in Sprague-Dawley rat at 2 mg/kg, iv administered as single bolus dose by LC-MS/MS analysis; type: ADME, organism-based; details: in vivo, read-out: beta t1/2 (converted)
[17] = target: Multidrug resistance-associated protein 1 (Homo sapiens, UniProt P33527); experiment: Inhibition of MRP1 (unknown origin) at 1 to 10 uM; details: dose 1-10 µM
Multidrug resistance-associated protein 1, sequence (P33527 whole entry): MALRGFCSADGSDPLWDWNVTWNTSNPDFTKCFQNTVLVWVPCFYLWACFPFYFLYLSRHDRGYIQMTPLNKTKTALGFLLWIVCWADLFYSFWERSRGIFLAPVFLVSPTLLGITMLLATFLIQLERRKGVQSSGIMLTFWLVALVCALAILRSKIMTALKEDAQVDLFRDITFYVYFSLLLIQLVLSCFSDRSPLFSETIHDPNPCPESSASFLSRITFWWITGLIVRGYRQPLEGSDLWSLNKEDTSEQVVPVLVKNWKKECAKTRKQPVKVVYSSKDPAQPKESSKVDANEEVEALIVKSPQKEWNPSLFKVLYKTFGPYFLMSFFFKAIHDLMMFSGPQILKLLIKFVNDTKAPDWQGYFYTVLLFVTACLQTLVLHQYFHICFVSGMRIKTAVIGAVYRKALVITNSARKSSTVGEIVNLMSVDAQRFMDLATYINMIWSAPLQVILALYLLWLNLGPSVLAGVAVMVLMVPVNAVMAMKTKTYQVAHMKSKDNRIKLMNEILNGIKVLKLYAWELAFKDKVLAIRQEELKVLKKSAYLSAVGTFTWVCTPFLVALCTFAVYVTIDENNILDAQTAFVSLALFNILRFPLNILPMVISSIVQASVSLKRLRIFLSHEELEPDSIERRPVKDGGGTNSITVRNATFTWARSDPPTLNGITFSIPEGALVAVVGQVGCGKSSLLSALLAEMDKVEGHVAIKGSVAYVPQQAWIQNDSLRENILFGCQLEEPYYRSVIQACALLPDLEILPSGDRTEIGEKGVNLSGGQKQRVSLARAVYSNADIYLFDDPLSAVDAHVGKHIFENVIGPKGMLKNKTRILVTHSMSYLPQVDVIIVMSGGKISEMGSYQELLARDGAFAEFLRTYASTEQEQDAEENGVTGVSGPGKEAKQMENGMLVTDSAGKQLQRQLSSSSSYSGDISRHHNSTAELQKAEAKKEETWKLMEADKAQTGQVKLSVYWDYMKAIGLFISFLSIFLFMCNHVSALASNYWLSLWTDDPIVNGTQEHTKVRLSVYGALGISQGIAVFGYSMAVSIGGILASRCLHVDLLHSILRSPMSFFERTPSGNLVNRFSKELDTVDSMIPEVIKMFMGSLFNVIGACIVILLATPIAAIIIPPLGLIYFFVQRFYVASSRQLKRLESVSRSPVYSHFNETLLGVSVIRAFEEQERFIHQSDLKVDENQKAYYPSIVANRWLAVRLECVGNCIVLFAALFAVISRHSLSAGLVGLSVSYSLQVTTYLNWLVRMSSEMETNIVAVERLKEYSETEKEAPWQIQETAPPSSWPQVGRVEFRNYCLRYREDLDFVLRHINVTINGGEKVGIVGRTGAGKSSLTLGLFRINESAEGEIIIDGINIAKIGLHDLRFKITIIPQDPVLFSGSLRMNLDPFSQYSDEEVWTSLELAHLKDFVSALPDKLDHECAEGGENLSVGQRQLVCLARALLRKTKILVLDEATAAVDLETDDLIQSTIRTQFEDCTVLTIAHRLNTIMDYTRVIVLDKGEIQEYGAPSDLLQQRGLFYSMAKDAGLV

[18] = Initial plasma concentration in Sprague-Dawley rat at 2 mg/kg, iv administered as single bolus dose by LC-MS/MS analysis; type: ADME, organism-based
[19] = target: Acidic mammalian chitinase (Mus musculus, UniProt Q91XA9); experiment: Inhibition of full-length C-terminal his-tagged mouse AMCase expressed in expressed in CHO-K1 cells assessed as reduction in chitinolytic activity using 4-methylumbelliferyl-beta-D-N,N'-diacetylchitobioside hydrate as substrate after 60 mins by fluorometric assay; type: cell-based
Acidic mammalian chitinase, sequence (Q91XA9 whole entry): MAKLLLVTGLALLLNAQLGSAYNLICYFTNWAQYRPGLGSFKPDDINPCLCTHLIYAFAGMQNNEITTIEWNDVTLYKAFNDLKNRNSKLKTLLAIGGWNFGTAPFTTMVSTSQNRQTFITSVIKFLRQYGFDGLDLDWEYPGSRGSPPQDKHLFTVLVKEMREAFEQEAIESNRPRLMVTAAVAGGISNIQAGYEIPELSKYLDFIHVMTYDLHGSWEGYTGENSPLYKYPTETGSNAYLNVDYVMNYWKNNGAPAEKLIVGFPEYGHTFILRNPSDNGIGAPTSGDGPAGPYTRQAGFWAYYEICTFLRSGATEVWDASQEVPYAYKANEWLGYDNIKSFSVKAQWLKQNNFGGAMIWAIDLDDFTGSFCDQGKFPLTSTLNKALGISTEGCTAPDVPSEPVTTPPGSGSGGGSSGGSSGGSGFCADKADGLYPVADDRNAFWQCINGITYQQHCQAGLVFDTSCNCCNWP

[20] = Elimination half-life in Beagle dog at 3 mg/kg, iv administered as single bolus dose by LC-MS/MS analysis; type: ADME, organism-based, Canis lupus familiaris; details: in vivo, read-out: beta t1/2 (converted)
[21] = target: Solute carrier family 22 member 1 (Homo sapiens, UniProt O15245); experiment: Inhibition of OCT1 (unknown origin) at 1 to 10 uM; details: dose 1-10 µM
[22] = Clearance (0 to infinity) in Sprague-Dawley rat at 2 mg/kg, iv administered as single bolus dose by LC-MS/MS analysis; type: ADME, organism-based; details: in vivo
[23] = target: Solute carrier organic anion transporter family member 1B3 (Homo sapiens, UniProt Q9NPD5); experiment: Inhibition of OATP1B3 (unknown origin) at 1 to 10 uM; details: dose 1-10 µM
[24] = Volume of distribution at steady state in Beagle dog at 3 mg/kg, iv administered as single bolus dose measured upto 24 hrs by LC-MS/MS analysis; type: ADME, organism-based, Canis lupus familiaris; details: in vivo, read-out: Vdss
[25] = target: ATP-binding cassette sub-family C member 3 (Homo sapiens, UniProt O15438); experiment: Inhibition of MRP3 (unknown origin) at 1 to 10 uM; details: dose 1-10 µM
[26] = Dose normalized AUC (0 to 24 hrs) in Beagle dog at 3 mg/kg, iv administered as single bolus dose by LC-MS/MS analysis; type: ADME, organism-based, Canis lupus familiaris; details: in vivo
[27] = Tmax in Sprague-Dawley rat at 6 mg/kg, po administered as single dose by LC-MS/MS analysis; type: ADME, organism-based; details: in vivo
Chitotriosidase-1 = Chitotriosidase-1 (Mus musculus, UniProt Q9D7Q1); experiment: biochemical
Chitotriosidase-1, sequence (Q9D7Q1 whole entry): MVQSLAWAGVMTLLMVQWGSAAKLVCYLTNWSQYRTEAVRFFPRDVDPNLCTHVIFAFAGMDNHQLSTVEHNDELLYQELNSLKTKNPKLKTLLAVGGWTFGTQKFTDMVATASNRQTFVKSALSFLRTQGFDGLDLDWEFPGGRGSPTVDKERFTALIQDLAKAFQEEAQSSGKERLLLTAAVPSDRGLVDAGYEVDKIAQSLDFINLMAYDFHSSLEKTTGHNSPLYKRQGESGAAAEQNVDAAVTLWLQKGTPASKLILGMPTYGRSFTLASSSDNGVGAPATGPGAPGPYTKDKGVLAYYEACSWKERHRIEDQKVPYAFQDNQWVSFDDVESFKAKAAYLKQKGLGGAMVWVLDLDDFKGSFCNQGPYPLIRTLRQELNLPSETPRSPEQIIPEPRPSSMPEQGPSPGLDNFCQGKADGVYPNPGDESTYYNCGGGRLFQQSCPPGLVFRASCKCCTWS
Description: Inhibition of recombinant full-length C-terminal his-tagged mouse CHIT1 expressed in CHO-K1 cells assessed as reduction in chitinolytic activity using 4-methylumbelliferyl-beta-D-N,N',N"-triacetylchitotrioside as substrate after 60 mins by fluorometric assay

[28] = Oral bioavailability in Balb/c mouse at 10 mg/kg, administered as single dose by LC-MS/MS analysis; type: ADME, organism-based; details: in vivo
[29] = AUC (0 to 24 hrs) in Beagle dog at 3 mg/kg, iv administered as single bolus dose by LC-MS/MS analysis; type: ADME, organism-based, Canis lupus familiaris; set-up: time < 24 hr, route intravenous, dose 3 mg/kg; details: in vivo
[30] = Drug uptake in C57BL/6N mouse plasma at 30 mg/kg, po bid administered via gavage measured 24 hrs post dose; type: ADME, organism-based; details: in vivo
[31] = target: Organic anion transporter 3 (Homo sapiens, UniProt Q8TCC7); experiment: Inhibition of OAT3 (unknown origin) at 1 to 10 uM; details: dose 1-10 µM
Organic anion transporter 3, sequence (Q8TCC7 whole entry): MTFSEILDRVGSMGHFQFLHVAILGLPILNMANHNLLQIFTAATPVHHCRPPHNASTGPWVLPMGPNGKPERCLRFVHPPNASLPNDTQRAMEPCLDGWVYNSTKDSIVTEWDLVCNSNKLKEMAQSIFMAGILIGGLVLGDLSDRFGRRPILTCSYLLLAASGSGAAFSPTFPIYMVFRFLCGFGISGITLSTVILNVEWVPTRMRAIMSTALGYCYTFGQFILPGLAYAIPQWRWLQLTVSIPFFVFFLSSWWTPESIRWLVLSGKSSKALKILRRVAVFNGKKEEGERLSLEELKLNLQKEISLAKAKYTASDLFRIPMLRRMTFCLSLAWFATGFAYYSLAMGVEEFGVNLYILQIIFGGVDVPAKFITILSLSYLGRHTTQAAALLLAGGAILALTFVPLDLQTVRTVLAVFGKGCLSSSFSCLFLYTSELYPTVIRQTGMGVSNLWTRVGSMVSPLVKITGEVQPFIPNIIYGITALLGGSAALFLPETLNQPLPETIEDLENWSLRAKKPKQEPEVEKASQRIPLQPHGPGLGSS

[32] = target: ATP-binding cassette sub-family C member 2 (Homo sapiens, UniProt Q92887); experiment: Inhibition of MRP2 (unknown origin) at 1 to 10 uM; details: dose 1-10 µM
[33] = Clearance (0 to 24 hrs) in Balb/c mouse at 3 mg/kg, iv administered as single bolus dose by LC-MS/MS analysis; type: ADME, organism-based; details: in vivo
[34] = Dose normalized Cmax in Balb/c mouse at 10 mg/kg, po administered as single dose by LC-MS/MS analysis; type: ADME, organism-based; details: in vivo
[35] = target: Hepatic sodium/bile acid cotransporter (Homo sapiens, UniProt Q14973); experiment: Inhibition of NTCP (unknown origin) at 1 to 10 uM; details: dose 1-10 µM
Hepatic sodium/bile acid cotransporter, sequence (Q14973 whole entry): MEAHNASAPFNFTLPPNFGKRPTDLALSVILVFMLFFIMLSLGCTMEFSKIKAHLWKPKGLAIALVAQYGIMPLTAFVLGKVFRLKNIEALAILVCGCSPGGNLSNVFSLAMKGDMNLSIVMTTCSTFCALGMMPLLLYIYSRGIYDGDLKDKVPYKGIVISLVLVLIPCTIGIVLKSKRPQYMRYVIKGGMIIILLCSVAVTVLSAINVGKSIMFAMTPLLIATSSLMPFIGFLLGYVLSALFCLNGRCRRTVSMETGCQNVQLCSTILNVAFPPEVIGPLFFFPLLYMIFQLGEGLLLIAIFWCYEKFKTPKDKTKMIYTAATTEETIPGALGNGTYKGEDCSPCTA

Cytochrome P450 2C9 = Cytochrome P450 2C9 (Homo sapiens, UniProt P11712); experiment: Inhibition of CYP2C9 (unknown origin); type: ADME
Cytochrome P450 2C9, sequence (P11712 whole entry): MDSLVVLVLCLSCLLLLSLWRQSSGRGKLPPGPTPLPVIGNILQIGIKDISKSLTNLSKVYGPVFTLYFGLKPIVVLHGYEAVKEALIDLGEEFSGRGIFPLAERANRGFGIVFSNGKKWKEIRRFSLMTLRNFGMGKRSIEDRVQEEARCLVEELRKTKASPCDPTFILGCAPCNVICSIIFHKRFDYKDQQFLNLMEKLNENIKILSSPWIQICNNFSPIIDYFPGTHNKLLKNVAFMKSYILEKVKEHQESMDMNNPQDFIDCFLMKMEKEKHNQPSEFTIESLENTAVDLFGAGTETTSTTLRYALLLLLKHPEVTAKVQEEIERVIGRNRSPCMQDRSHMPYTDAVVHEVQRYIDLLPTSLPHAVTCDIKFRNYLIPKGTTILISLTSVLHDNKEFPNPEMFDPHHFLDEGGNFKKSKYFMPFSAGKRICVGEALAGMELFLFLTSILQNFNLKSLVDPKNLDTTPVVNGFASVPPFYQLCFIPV

[36] = Cmax in Balb/c mouse at 10 mg/kg, po administered as single dose by LC-MS/MS analysis; type: ADME, organism-based; set-up: route oral, dose 10 mg/kg; details: in vivo
Cytochrome P450 3A4 = Cytochrome P450 3A4 (Homo sapiens, UniProt P08684); experiment: Inhibition of CYP3A4 (unknown origin); type: ADME
Cytochrome P450 3A4, sequence (P08684 whole entry): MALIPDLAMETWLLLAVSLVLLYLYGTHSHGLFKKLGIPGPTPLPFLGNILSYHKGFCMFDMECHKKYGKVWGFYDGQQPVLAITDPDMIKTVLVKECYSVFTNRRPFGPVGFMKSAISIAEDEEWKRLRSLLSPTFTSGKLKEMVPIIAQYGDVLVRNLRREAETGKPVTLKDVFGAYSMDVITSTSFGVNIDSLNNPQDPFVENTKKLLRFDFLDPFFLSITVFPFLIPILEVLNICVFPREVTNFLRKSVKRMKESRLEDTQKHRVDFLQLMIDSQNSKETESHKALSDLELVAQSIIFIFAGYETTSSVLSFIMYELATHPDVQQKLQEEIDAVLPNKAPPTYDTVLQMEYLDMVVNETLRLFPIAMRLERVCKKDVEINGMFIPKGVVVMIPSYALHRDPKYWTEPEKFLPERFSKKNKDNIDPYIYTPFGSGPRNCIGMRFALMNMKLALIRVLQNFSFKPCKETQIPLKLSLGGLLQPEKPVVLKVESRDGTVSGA

[37] = Elimination half-life in Beagle dog at 10 mg/kg, po administered as single dose by LC-MS/MS analysis; type: ADME, organism-based, Canis lupus familiaris; details: in vivo, read-out: beta t1/2 (converted)

C[C@H]1CN(C2CCN(c3nc(N)n[nH]3)CC2)[C@@H](Cc2ccc(Cl)cc2)CO1 [5-(4-((2S,5S)-5-(4-CHLOROBENZYL)-2-METHYLMORPHOLINO)PIPERIDIN-1-YL)-1H-1,2,4-TRIAZOL-3-AMINE]
bioavailability [1]: 91.4% | AUC/dose [2]: 9.41 kg·mg·h/L/mg | Tmax [3]: 2 h | AUC/dose [4]: 2.22 kg·mg·h/L/mg | Drug uptake [5]: Active | Cmax/dose [6]: 0.37 kg.mg/L.mL | inhibition (INH) [7]: Not Active | inhibition (Mus musculus): Active | Drug uptake [8]: Active | inhibition (INH) (Cytochrome P450 1A2): Not Active | AUC(0-t) at 24 h [9]: 5560 ng·h/mL | Cmax [10]: 7640 ng/mL | clearance [11]: 5.67 mL/min/kg | AUC/dose [12]: 2.78 kg·mg·h/L/mg | AUC/dose [13]: 2.87 kg·mg·h/L/mg | inhibition (INH) [14]: Not Active | Vd [15]: 1.82 L/kg | half-life [16]: 4.49 h | inhibition (INH) [17]: Not Active | C0 [18]: 1000 ng/mL | IC50 [19]: 7.8 nM | Ki [19]: 5.7 nM | half-life [20]: 21.9 h | inhibition (INH) [21]: Not Active | clearance [22]: 5.67 mL/min/kg | inhibition (INH) [23]: Not Active | Vd [24]: 0.96 L/kg | inhibition (INH) [25]: Not Active | AUC/dose [26]: 10.34 kg·mg·h/L/mg | Tmax [27]: 2 h | IC50 (Chitotriosidase-1): 28 nM | Ki (Chitotriosidase-1): 26 nM | bioavailability [28]: 77.4% | AUC(0-t) at 24 h [29]: 31000 ng·h/mL | Drug uptake [30]: Active | inhibition (INH) [31]: Not Active | inhibition (INH) [32]: Not Active | clearance [33]: 5.83 mL/min/kg | Cmax/dose [34]: 0.34 kg.mg/L.mL | inhibition (INH) [35]: Not Active | inhibition (INH) (Cytochrome P450 2C9): Not Active | Cmax [36]: 3420 ng/mL | inhibition (INH) (Cytochrome P450 3A4): Not Active | half-life [37]: 22.9 h

From ChEMBL document CHEMBL4699582, “Discovery of OATD-01, a First-in-Class Chitinase Inhibitor as Potential New Therapeutics for Idiopathic Pulmonary Fibrosis” (J Med Chem, 2020)
